Measured values as given in US7803815B2, “Indol-3-yl-corbonyl-piperidin-benzoimidazol derivatives” (Hoffmann-La Roche Inc., priority 2005, dated 2010).

target: T1, human V1a receptor (Homo sapiens, UniProt P37288); experiment: human V1a receptor binding, 3H-Vasopressin SPA on membranes of transfected HEK293 cells; details: displacement of 4 nM 3H-Vasopressin; HEK293 cell membranes; 1 h at room temperature; Ki from IC50 by the Cheng-Prussoff equation
T1 construct: expressed in transfected cells; host or cells: HEK293 cells, transiently transfected; membrane preparation
T1 sequence (P37288 whole entry): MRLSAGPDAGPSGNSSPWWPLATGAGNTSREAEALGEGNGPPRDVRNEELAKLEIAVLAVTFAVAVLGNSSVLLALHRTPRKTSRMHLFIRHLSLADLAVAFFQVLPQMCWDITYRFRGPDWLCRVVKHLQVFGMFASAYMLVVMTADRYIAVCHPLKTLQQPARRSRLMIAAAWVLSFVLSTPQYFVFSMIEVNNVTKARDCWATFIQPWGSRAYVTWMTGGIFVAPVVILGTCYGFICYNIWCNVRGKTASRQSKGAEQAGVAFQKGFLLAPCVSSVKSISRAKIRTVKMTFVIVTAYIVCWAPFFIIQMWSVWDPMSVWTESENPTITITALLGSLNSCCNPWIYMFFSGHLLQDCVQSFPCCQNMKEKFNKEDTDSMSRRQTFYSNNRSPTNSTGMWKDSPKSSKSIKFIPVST
Protocol: The human V1a receptor was cloned by RT-PCR from total human liver RNA. The coding sequence was subcloned in an expression vector after sequencing to confirm the identity of the amplified sequence. […] Cell membranes were prepared from HEK293 cells transiently transfected with the expression vector and grown in 20 liter fermenters with the following protocol.
50 g of cells are resuspended in 30 ml freshly prepared ice cold Lysis buffer (50 mM HEPES, 1 mM EDTA, 10 mM MgCl2 adjusted to pH=7.4+ complete cocktail of protease inhibitor (Roche Diagnostics)). Homogenized with Polytron for 1 min and sonicated on ice for 2×2 minutes at 80% intensity (Vibracell sonicator). The preparation is centrifuged 20 min at 500 g at 4° C., the pellet is discarded, and the supernatant centrifuged 1 hour at 43,000 g at 4° C. (19,000 rpm). The pellet is resuspended in 12.5 ml Lysis buffer+12.5 ml Sucrose 20% and homogenized using a Polytron for 1-2 min. The protein concentration is determined by the Bradford method, and aliquots are stored at −80° C. until use. For binding studies 60 mg Yttrium silicate SPA beads (Amersham) are mixed with an aliquot of membrane in binding buffer (50 mM Tris, 120 mM NaCl, 5 mM, KCl, 2 mM CaCl2, 10 mM MgCl2) for 15 minutes with mixing. 50 ul of bead/membrane mixture is then added to each well of a 96 well plate, followed by 50 ul of 4 nM 3H-Vasopressin (American Radiolabeled Chemicals). For total binding measurement, 100 ul of binding buffer are added to the respective wells, for non-specific binding 100 ul of […] cold vasopressin and for compound testing 100 ul of a serial dilution of each compound in 2% DMSO. The plate is incubated 1 h at room temperature, centrifuged 1 min at 1000 g and counted on a Packard Top-Count. Non-specific binding counts are subtracted from each well, and data is normalized to the maximum specific binding set at 100%. To calculate an IC 50, the curve is fitted using a non-linear regression model (XLfit), and the Ki is calculated using the Cheng-Prussoff equation.

Ki [µM] | Structure (SMILES)
0.006 | O=C(Cn1cc(C(=O)N2CCC(n3c(=O)[nH]c4ccccc43)CC2)c2ccc(Cl)cc21)c1ccc(F)cc1F [Example 36, 1-(1-{6-Chloro-1-[2-(2,4-difluoro-phenyl)-2-oxo-ethyl]-1H-indole-3-carbonyl}-piperidin-4-yl)-1,3-dihydro-benzoimidazol-2-one]
0.006 | Cc1c(C(=O)N2CCC(n3c(N4CCCCC4)nc4ccccc43)CC2)c2ccccc2n1Cc1ccccc1 [Example 4, (1-Benzyl-2-methyl-1H-indol-3-yl)-[4-(2-piperidin-1-yl-benzoimidazol-1-yl)-piperidin-1-yl]-methanone]
0.062 | CCN(CC)C(=O)Cn1cc(C(=O)N2CCC(n3c(=O)n(CC(=O)N(CC)CC)c4ccccc43)CC2)c2ccc(Cl)cc21 [Example 43, 2-{6-Chloro-3-[4-(3-diethylcarbamoylmethyl-2-oxo-2,3-dihydro-benzoimidazol-1-yl)-piperidine-1-carbonyl]-indol-1-yl}-N,N-diethyl-acetamide]
0.011 | CCC(C)C(=O)c1[nH]c2ccccc2c1C(=O)N1CCC(n2c(=O)[nH]c3ccccc32)CC1 (stereo not drawn) [Example 22, 1-{1-[2-(2-Methyl-butyryl)-1H-indole-3-carbonyl]-piperidin-4-yl}-1,3-dihydro-benzoimidazol-2-one]
0.0007 | CN(C)CCn1cc(C(=O)N2CCC(n3c(=O)[nH]c4ccccc43)CC2)c2ccc(Cl)cc21 [Example 26, 1-{1-[6-Chloro-1-(2-dimethylamino-ethyl)-1H-indole-3-carbonyl]-piperidin-4-yl}-1,3-dihydro-benzoimidazol-2-one]
0.039 | Cc1[nH]c2ccccc2c1C(=O)N1CCC(n2c(=O)[nH]c3ccccc32)CC1 [Example 10, 1-[1-(2-Methyl-1H-indole-3-carbonyl)-piperidin-4-yl]-1,3-dihydro-benzoimidazol-2-one]
0.005 | CN(C)CCn1c(=O)n(C2CCN(C(=O)c3c[nH]c4cc(Cl)ccc34)CC2)c2ccccc21 [Example 27, 1-[1-(6-Chloro-1H-indole-3-carbonyl)-piperidin-4-yl]-3-(2-dimethylamino-ethyl)-1,3-dihydro-benzoimidazol-2-one]
0.022 | O=C(Cn1cc(C(=O)N2CCC(n3c(=O)[nH]c4ccccc43)CC2)c2ccc(Cl)cc21)c1cccc(F)c1 [Example 29, 1-(1-{6-Chloro-1-[2-(3-fluoro-phenyl)-2-oxo-ethyl]-1H-indole-3-carbonyl}-piperidin-4-yl)-1,3-dihydro-benzoimidazol-2-one]

Structure (SMILES) | Ki [µM]
CC(C)n1cc(C(=O)N2CCC(n3c(=O)[nH]c4ccccc43)CC2)c2ccccc21 [Example 14, 1-[1-(1-Isopropyl-1H-indole-3-carbonyl)-piperidin-4-yl]-1,3-dihydro-benzoimidazol-2-one] | 0.032
O=C(Cn1cc(C(=O)N2CCC(n3c(=O)n(CC(=O)N4CCCCC4)c4ccccc43)CC2)c2ccc(Cl)cc21)N1CCCCC1 [Example 42, 1-{1-[6-Chloro-1-(2-oxo-2-piperidin-1-yl-ethyl)-1H-indole-3-carbonyl]-piperidin-4-yl}-3-(2-oxo-2-piperidin-1-yl-ethyl)-1,3-dihydro-benzoimidazol-2-one] | 0.018
CC(C)n1cc(C(=O)N2CCC(n3c(=O)[nH]c4ccccc43)CC2)c2ccc(Cl)cc21 [Example 13, 1-[1-(6-Chloro-1-isopropyl-1H-indole-3-carbonyl)-piperidin-4-yl]-1,3-dihydro-benzoimidazol-2-one] | 0.002
O=C(c1cn(Cc2ccccc2)c2ccccc12)N1CCC(n2c(=O)[nH]c3ccccc32)CC1 [Example 8, 1-[1-(1-Benzyl-1H-indole-3-carbonyl)-piperidin-4-yl]-1,3-dihydro-benzoimidazol-2-one] | 0.013
